{"source": "patent US20220071999A1", "about": "“DESIGN AND DISCOVERY OF BD OXIDASE INHIBITORS FOR THE TREATMENT OF MYCOBACTERIAL DISEASES” (UNIVERSITY OF NOTRE DAME DU LAC, priority 2018, published 2022)", "key": {"[1]": {"test_system": "Mycobacterium abscessus clinical specimens", "experiment": "checkerboard assay (MIC) against Mycobacterium abscessus clinical specimens", "assay_type": "cell-based", "conditions": "for MIC: Mycobacteroides abscessus; for Activity (effect on MICs in combination): ND-11992 with ND-11598", "method": "ND-11992 (bd oxidase inhibitor) and ND-11598 (cyt-bc1:aa3 inhibitor) were evaluated against various Mycobacterium abscessus clinical specimens in a checkerboard assay. Additive effects on MICs were observed when both drugs were used in combination. MIC values are given in μg/mL."}, "[2]": {"test_system": "Nontuberculous mycobacteria (NTM) clinical isolates of the Mycobacterium avium-intracellulare complex (MAIC)", "experiment": "checkerboard assay (MIC) against NTM clinical isolates of the MAIC", "assay_type": "cell-based", "conditions": "for MIC: Mycobacterium avium-intracellulare", "method": "ND-11992 (bd oxidase inhibitor) and ND-11598 (cyt-bc1:aa3 inhibitor) were evaluated against various Nontuberculous mycobacteria (NTM) clinical isolates of the Mycobacterium avium-intracellulare complex (MAIC) in a checkerboard assay. Additive and synergistic effects on MICs were observed when both drugs were used in combination. MIC values are given in μg/mL."}, "M. tuberculosis": {"test_system": "M. tuberculosis", "experiment": "acute murine model of M. tuberculosis infection, alone and in combination", "assay_type": "in vivo", "method": "ND-11992 (bd oxidase inhibitor) and Q203 (cyt-bc1:aa3 inhibitor) were evaluated in an acute murine model of M. tuberculosis infection alone and in combination. ND-11992 (10 mg/kg PO)+Q203 (5 mg/kg PO) results in bactericidal efficacy with 1.5 log 10 CFU drop in bacteria when dosed orally for 5 days. […] Both compounds were bacteriostatic when dosed alone as single agents."}}, "note": "Like-named read-outs stand apart in the source and are kept apart here."}
{"smiles": "FC(F)(F)c1ccc(Oc2ccc(Nc3ncnc4ccccc34)cc2)cc1", "note": "[ND-11992]", "values": [{"measurement": "MIC", "setting": "[1]; M. abscessus Clinical Isolate #8, with 5 μg/ml of ND-11598, read-out: ND-11992 MIC with 5 μg/ml of ND-11598", "value": 5, "unit": "µg/mL"}, {"measurement": "MIC", "setting": "[1]; M. abscessus Clinical Isolate #38, with 5 μg/ml of ND-11598, read-out: ND-11992 MIC with 5 μg/ml of ND-11598", "value": 5, "unit": "µg/mL"}, {"measurement": "MIC", "setting": "[1]; M. abscessus Clinical Isolate #50, with 5 μg/ml of ND-11598, read-out: ND-11992 MIC with 5 μg/ml of ND-11598", "value": 10, "unit": "µg/mL"}, {"measurement": "Activity (effect on MICs in combination)", "setting": "[1]; M. abscessus Clinical Isolate #8", "value": "Additive"}, {"measurement": "Activity (effect on MICs in combination)", "setting": "[1]; M. abscessus Clinical Isolate #38", "value": "Additive"}, {"measurement": "Activity (effect on MICs in combination)", "setting": "[1]; M. abscessus Clinical Isolate #50", "value": "Additive"}, {"measurement": "MIC", "setting": "[2]; NTM Clinical Isolate #25, ND-11598 was only 0.125 μg/ml (column head: 0.5 μg/ml), read-out: ND-11992 MIC with ND-11598", "value": 0.0625, "unit": "µg/mL"}, {"measurement": "MIC", "setting": "[2]; NTM Clinical Isolate #50, with 0.5 μg/ml of ND-11598, read-out: ND-11992 MIC with 0.5 μg/ml of ND-11598", "value": 0.125, "unit": "µg/mL"}, {"measurement": "MIC", "setting": "[2]; NTM MAIC A5 (serotype 4), with 0.5 μg/ml of ND-11598, read-out: ND-11992 MIC with 0.5 μg/ml of ND-11598", "value": 0.25, "unit": "µg/mL"}, {"measurement": "MIC", "setting": "[2]; NTM MAIC Serovar #4, with 0.5 μg/ml of ND-11598, read-out: ND-11992 MIC with 0.5 μg/ml of ND-11598", "value": 0.5, "unit": "µg/mL"}, {"measurement": "MIC", "setting": "[2]; NTM MAIC Serovar #5, with 0.5 μg/ml of ND-11598, read-out: ND-11992 MIC with 0.5 μg/ml of ND-11598", "value": 1, "unit": "µg/mL"}, {"measurement": "MIC", "setting": "[2]; NTM MAIC Serovar #10, with 0.5 μg/ml of ND-11598, read-out: ND-11992 MIC with 0.5 μg/ml of ND-11598", "value": 0.5, "unit": "µg/mL"}, {"measurement": "Activity (effect on MICs in combination)", "setting": "[2]; ND-11992 with ND-11598, NTM MAIC Serovar #6", "value": "Additive"}, {"measurement": "CFU drop", "setting": "M. tuberculosis; 10 mg/kg of ND-11992 alone", "value": "no CFU drop"}, {"measurement": "type of efficacy (bactericidal/bacteriostatic)", "setting": "M. tuberculosis; combination ND-11992 10 mg/kg PO + Q203 5 mg/kg PO, 5 days", "value": "bactericidal"}, {"measurement": "CFU drop in bacteria", "setting": "M. tuberculosis; combination ND-11992 10 mg/kg PO + Q203 5 mg/kg PO, dosed orally for 5 days", "value": 1.5, "unit": "log 10 CFU"}, {"measurement": "type of efficacy (bactericidal/bacteriostatic)", "setting": "M. tuberculosis; dosed alone as single agents", "value": "bacteriostatic"}]}
{"smiles": "Cc1ccn2c(C(=O)NCc3ccc(N4CCCN(c5ccc(C(F)(F)F)cc5)CC4)c(F)c3)c(C)nc2c1", "note": "[ND-11598]", "values": [{"measurement": "MIC", "setting": "[1]; M. abscessus Clinical Isolate #8, read-out: MIC ND-11598 alone", "value": "> 10", "unit": "µg/mL"}, {"measurement": "MIC", "setting": "[1]; M. abscessus Clinical Isolate #8, with 5 μg/ml ND 11992, read-out: ND-11598 MIC with 5 μg/ml ND 11992", "value": 5, "unit": "µg/mL"}, {"measurement": "MIC", "setting": "[1]; M. abscessus Clinical Isolate #38, read-out: MIC ND-11598 alone", "value": "> 10", "unit": "µg/mL"}, {"measurement": "MIC", "setting": "[1]; M. abscessus Clinical Isolate #38, with 5 μg/ml ND 11992, read-out: ND-11598 MIC with 5 μg/ml ND 11992", "value": 5, "unit": "µg/mL"}, {"measurement": "MIC", "setting": "[1]; M. abscessus Clinical Isolate #50, read-out: MIC ND-11598 alone", "value": "> 10", "unit": "µg/mL"}, {"measurement": "MIC", "setting": "[1]; M. abscessus Clinical Isolate #50, with 5 μg/ml ND 11992, read-out: ND-11598 MIC with 5 μg/ml ND 11992", "value": 10, "unit": "µg/mL"}, {"measurement": "MIC", "setting": "[2]; NTM Clinical Isolate #25, read-out: MIC ND-11598 alone", "value": 0.25, "unit": "µg/mL"}, {"measurement": "MIC", "setting": "[2]; NTM Clinical Isolate #25, with 0.5 μg/ml ND 11992, read-out: ND-11598 MIC with 0.5 μg/ml ND 11992", "value": 0.0156, "unit": "µg/mL"}, {"measurement": "MIC", "setting": "[2]; NTM Clinical Isolate #50, read-out: MIC ND-11598 alone", "value": 1, "unit": "µg/mL"}, {"measurement": "MIC", "setting": "[2]; NTM Clinical Isolate #50, with 0.5 μg/ml ND 11992, read-out: ND-11598 MIC with 0.5 μg/ml ND 11992", "value": 0.0156, "unit": "µg/mL"}, {"measurement": "MIC", "setting": "[2]; NTM MAIC A5 (serotype 4), read-out: MIC ND-11598 alone", "value": 1, "unit": "µg/mL"}, {"measurement": "MIC", "setting": "[2]; NTM MAIC A5 (serotype 4), with 0.5 μg/ml ND 11992, read-out: ND-11598 MIC with 0.5 μg/ml ND 11992", "value": 0.25, "unit": "µg/mL"}, {"measurement": "MIC", "setting": "[2]; NTM MAIC Serovar #4, read-out: MIC ND-11598 alone", "value": "> 10", "unit": "µg/mL"}, {"measurement": "MIC", "setting": "[2]; NTM MAIC Serovar #4, with 0.5 μg/ml ND 11992, read-out: ND-11598 MIC with 0.5 μg/ml ND 11992", "value": 0.25, "unit": "µg/mL"}, {"measurement": "MIC", "setting": "[2]; NTM MAIC Serovar #5, read-out: MIC ND-11598 alone", "value": "> 10", "unit": "µg/mL"}, {"measurement": "MIC", "setting": "[2]; NTM MAIC Serovar #5, with 0.5 μg/ml ND 11992, read-out: ND-11598 MIC with 0.5 μg/ml ND 11992", "value": 1, "unit": "µg/mL"}, {"measurement": "MIC", "setting": "[2]; NTM MAIC Serovar #6, read-out: MIC ND-11598 alone", "value": 0.0156, "unit": "µg/mL"}, {"measurement": "MIC", "setting": "[2]; NTM MAIC Serovar #6, with ND-11992 at 1 (column head: 0.5 μg/ml), read-out: ND-11598 MIC with ND 11992", "value": 0.0078, "unit": "µg/mL"}, {"measurement": "MIC", "setting": "[2]; NTM MAIC Serovar #10, read-out: MIC ND-11598 alone", "value": 10, "unit": "µg/mL"}, {"measurement": "MIC", "setting": "[2]; NTM MAIC Serovar #10, with 0.5 μg/ml ND 11992, read-out: ND-11598 MIC with 0.5 μg/ml ND 11992", "value": 0.25, "unit": "µg/mL"}]}
{"smiles": "CCc1nc2ccc(Cl)cn2c1C(=O)NCc1ccc(N2CCC(c3ccc(OC(F)(F)F)cc3)CC2)cc1", "note": "[Q203]", "values": [{"measurement": "type of efficacy (bactericidal/bacteriostatic)", "setting": "M. tuberculosis; dosed alone as single agents", "value": "bacteriostatic"}]}
